US10004702B2, “Linear guanidine derivatives, methods of preparation and uses thereof” (LEAD DISCOVERY SIENA S.R.L., priority 2014, dated 2018)
In brackets after ≈: the same amount, converted by molar mass.

Assays:
Type in all cases: cell-based
[1] = system: Klebsiella pneumoniae 081R; assay: Bactericidal activity (MBC)
[2] = system: Staphylococcus aureus ATCC 25923; assay: Bactericidal activity (MBC); conditions: ATCC25923
[3] = system: Chryseobacterium meningosepticum CCUG 4310; assay: Bactericidal activity (MBC); conditions: Elizabethkingia meningoseptica, CCUG4310
[4] = system: Bacillus subtilis ATCC 6633; assay: Bactericidal activity (MBC); conditions: ATCC6633
[5] = system: Pseudomonas aeruginosa 101/1477; assay: MIC against resistant clinical isolates; conditions: resistance profile PEN, ES-CEPH, CARB, AG
Procedure: (§1) Bacterial strains were obtained from the ATCC or CCUG culture collections or present in the authors' collection of clinical isolates. Compounds were re-suspended in dimethyl sulfoxyde (DMSO) at a final concentration of 10 mg/ml and subsequently diluted in the culture medium. The minimum inhibitory concentrations (MICs) of the compounds of the invention were determined using the microdilution broth method using Mueller-Hinton broth as recommended by the Clinical Laboratory Standards Institute (CLSI [11]). Bacterial inoculum was 5×10^4 CFU/well. MICs were recorded after 18-24 hours incubation at 35-37° C.
(§2) The Antibacterial activity of compound 28 was also tested on a panel of Gram-negative and Gram-positive clinical isolates, showing various antimicrobial susceptibility profiles (Table 4). The class of drugs for which the isolate was resistant to is indicated in column 2 (PEN, penicillins; ES-CEPH, expanded-spectrum cephalosporins; CARB, carbapenems; AZT; aztreonam; AG, aminoglycosides; FQ, fluoroquinolones; SXT, trimethoprim/sulfamethoxazole; FOS, fosfomycin; GLY, glycopeptides; LNZ, linezolid; COL-R, colistin resistant; COL-S colistin sensitive; PDR, poly-drug resistant).

[6] = system: Klebsiella pneumoniae BO1; assay: MIC against resistant clinical isolates; conditions: COL-S
Procedure: as §1, §2

[7] = system: Pseudomonas aeruginosa 14X-34; assay: MIC against resistant clinical isolates; conditions: 14X34, resistance profile PDR
Procedure: as §1, §2

Klebsiella pneumoniae B2 = assay: MIC against resistant clinical isolates; conditions: COL-R
Procedure: as §1, §2

[8] = system: Klebsiella pneumoniae 207-2; assay: MIC against resistant clinical isolates; conditions: 2072, COL-R
Procedure: as §1, §2

[9] = system: Staphylococcus haemolyticus SI-6/2011; assay: MIC against resistant clinical isolates; conditions: SI6/2011, resistance profile AG
Procedure: as §1, §2

[10] = system: Staphylococcus aureus ATCC 700699 (VanA); assay: MIC against resistant clinical isolates; conditions: ATCC700699, resistance profile GLY
Procedure: as §1, §2

[11] = system: Klebsiella pneumoniae 207-1; assay: MIC against resistant clinical isolates; conditions: 2071, COL-S
Procedure: as §1, §2

[12] = system: Staphylococcus warneri SI-5/2011; assay: MIC against resistant clinical isolates; conditions: SI5/2011, resistance profile PEN, AG
Procedure: as §1, §2

[13] = system: Klebsiella pneumoniae 167R; assay: MIC against resistant clinical isolates; conditions: resistance profile PDR
Procedure: as §1, §2

[14] = system: Staphylococcus aureus ATCC 43300 (MRSA); assay: MIC against resistant clinical isolates; conditions: resistance profile PEN
Procedure: as §1, §2

[15] = system: Klebsiella pneumoniae 7023; assay: MIC against resistant clinical isolates; conditions: resistance profile PEN, ES-CEPH, CARB, AG, FQ, SXT
Procedure: as §1, §2

Klebsiella pneumoniae B1 = assay: MIC against resistant clinical isolates; conditions: COL-S
Procedure: as §1, §2

[16] = system: Klebsiella pneumoniae KP0787; assay: MIC against resistant clinical isolates; conditions: resistance profile PDR
Procedure: as §1, §2

[17] = system: Pseudomonas aeruginosa VR143/97; assay: MIC against resistant clinical isolates; conditions: resistance profile PEN, ES-CEPH, CARB, MON, AG, FQ
Procedure: as §1, §2

[18] = system: Klebsiella pneumoniae BO4; assay: MIC against resistant clinical isolates; conditions: COL-R
Procedure: as §1, §2

[19] = system: Alcaligenes faecalis 424/98; assay: Bactericidal activity (MBC)
Escherichia coli CCUG^T = assay: Antimicrobial susceptibility testing, MIC by microdilution broth method; conditions: Mueller-Hinton broth, 18-24 hours at 35-37° C., read-out: MIC
Procedure: as §1

[20] = system: Chryseobacterium meningosepticum CCUG 4310; assay: as above; conditions: Elizabethkingia meningoseptica, CCUG4310, Mueller-Hinton broth, 18-24 hours at 35-37° C., read-out: MIC
Procedure: as §1

Burkholderia cepacia RII = assay: as above; conditions: Mueller-Hinton broth, 18-24 hours at 35-37° C., read-out: MIC
Procedure: as §1

[21] = system: Klebsiella pneumoniae ATCC 13833; assay: as above; conditions: ATCC13833, Mueller-Hinton broth, 18-24 hours at 35-37° C., read-out: MIC
Procedure: as §1

[22] = system: Acinetobacter baumannii ATCC 17978; assay: as above; conditions: ATCC17978, Mueller-Hinton broth, 18-24 hours at 35-37° C., read-out: MIC
Procedure: as §1

[23] = system: Bacillus subtilis ATCC 6633; assay: as above; conditions: ATCC6633, Mueller-Hinton broth, 18-24 hours at 35-37° C., read-out: MIC
Procedure: as §1

[24] = system: Achromobacter xylosoxidans AX 22; assay: as above; conditions: AX22, Mueller-Hinton broth, 18-24 hours at 35-37° C., read-out: MIC
Procedure: as §1

[25] = system: Enterococcus faecalis ATCC 19433; assay: as above; conditions: ATCC19433, Mueller-Hinton broth, 18-24 hours at 35-37° C., read-out: MIC
Procedure: as §1

[26] = system: Alcaligenes faecalis 424/98; assay: as above; conditions: Mueller-Hinton broth, 18-24 hours at 35-37° C., read-out: MIC
Procedure: as §1

[27] = system: Pseudomonas aeruginosa ATCC 27853; assay: as above; conditions: ATCC27853, Mueller-Hinton broth, 18-24 hours at 35-37° C., read-out: MIC
Procedure: as §1

[28] = system: Stenotrophomonas maltophilia 634/08; assay: as above; conditions: Mueller-Hinton broth, 18-24 hours at 35-37° C., read-out: MIC
Procedure: as §1

[29] = system: Staphylococcus aureus ATCC 25923; assay: as above; conditions: ATCC25923, Mueller-Hinton broth, 18-24 hours at 35-37° C., read-out: MIC
Procedure: as §1

`N=C(N)NCCCCCCCCN(CCCCCCCCNC(=N)NCC1CC1)C(=O)N(CCCCCCCCNC(=N)N)CCCCCCCCNC(=N)NCC1CC1` [Compound 28, 1,3-bis(8-(3-(cyclopropylmethyl)guanidino)octyl)-1,3-bis(8-guanidinooctyl)urea] showed an MBC [1] of 2 µg/mL (≈ 2.37 µM), an MBC [2] of 2 µg/mL (≈ 2.37 µM) and an MBC [3] of 64 µg/mL (≈ 75.7 µM). For the same compound, the MBC [4] was 0.5 µg/mL (≈ 0.591 µM), the MIC [5] was 8 µg/mL (≈ 9.46 µM) and the MIC [6] was 4 µg/mL (≈ 4.73 µM). For the same compound, the MIC [7] was 8 µg/mL (≈ 9.46 µM), the MIC (Klebsiella pneumoniae B2) was 4 µg/mL (≈ 4.73 µM) and the MIC [8] was 8 µg/mL (≈ 9.46 µM). For the same compound, the MIC [9] was 2 µg/mL (≈ 2.37 µM), the MIC [10] was 4 µg/mL (≈ 4.73 µM) and the MIC [11] was 4 µg/mL (≈ 4.73 µM). The MIC [12] was 2 µg/mL (≈ 2.37 µM), the MIC [13] was 4 µg/mL (≈ 4.73 µM) and the MIC [14] was 4 µg/mL (≈ 4.73 µM). The MIC [15] was 2 µg/mL (≈ 2.37 µM), the MIC (Klebsiella pneumoniae B1) was 4 µg/mL (≈ 4.73 µM) and the MIC [16] was 1 µg/mL (≈ 1.18 µM). It also gave an MIC [17] of 8 µg/mL (≈ 9.46 µM), an MIC [18] of 8 µg/mL (≈ 9.46 µM) and an MBC [19] of 8 µg/mL (≈ 9.46 µM). The MIC (Escherichia coli CCUG^T) was 1 µg/mL (≈ 1.18 µM), the MIC [20] was 64 µg/mL (≈ 75.7 µM) and the MIC (Burkholderia cepacia RII) was 8 µg/mL (≈ 9.46 µM). For the same compound, the MIC [21] was 1 µg/mL (≈ 1.18 µM), the MIC [22] was 4 µg/mL (≈ 4.73 µM) and the MIC [23] was 0.5 µg/mL (≈ 0.591 µM). For the same compound, the MIC [24] was 8 µg/mL (≈ 9.46 µM), the MIC [25] was < 0.125 µg/mL and the MIC [26] was 8 µg/mL (≈ 9.46 µM). For the same compound, the MIC [27] was 4 µg/mL (≈ 4.73 µM), the MIC [28] was 16 µg/mL (≈ 18.9 µM) and the MIC [29] was 2 µg/mL (≈ 2.37 µM).
